This is an account of results in patent US8916541B2, “Synergistic combination of honokiol and modified citrus pectin in cancer therapy” (Better Health Publishing, Inc., priority 2011, dated 2014).

Data set [1] has as its system liver cancer BEL-7404 cell line cells. As to the kind of experiment: MTT cell viability assay.
For data set [2], the system named is suppressor/cytotoxic T-lymphocyte subset (CD3/CD8). Briefly: FastImmune CD69 T-cytotoxic/suppressor lymphocyte activation in whole blood cultures. Type of data set: cell-based, human. The following applies: 10 ng/ml. From the text:
(§1) In vitro lymphocyte activation represents a standard approach for evaluating cell-mediated responses to a variety of stimuli including immunostimulatory botanical extracts. The FastImmune assay system monitors the expression of the early activation marker CD69 in whole blood after stimulation with extracts.
(§2) T-lymphocyte subsets can be identified and quantified by using fluorochrome-labeled antibody combinations such as CD4/CD69/CD3 and CD8/CD69/CD3. CD4 antigen is expressed on the T-helper/inducer lymphocyte subset (CD3/CD4). CD8 antigen is expressed on the human suppressor/cytotoxic T-lymphocyte subset (CD3/CD8). Once activated both CD4 and CD8 positive T cells express CD69.
(§3) Blood samples were collected from healthy volunteers and 250 μl blood sample were incubated in 48-well plates with increasing concentrations of compound along with appropriate positive controls (recommended by Becton Dickinson Biosciences, CA) for each subset. CD2/CD2R and Phorbol ester (PMA) were used as controls for T-lymphocyte activation studies. […] T2CA, a characterized polysaccharide complex evaluated in these assays was also used as a control. The blood cultures were incubated at 37° C. in a CO2 incubator for 24 h. […] The percentage of activated T-cell subsets, B-cells and NK-cells and the percentage increase over untreated control were calculated and plotted against compound concentrations.

The subject of data set [3] is T-helper/inducer lymphocyte subset (CD3/CD4). Briefly: FastImmune CD69 T-helper/inducer lymphocyte activation in whole blood cultures. The following applies: 10 ng/ml. Type of data set: cell-based, human.
Text: as §1, §2, §3

Where [4] appears, read: increase over untreated control.

Consider `C=CCc1ccc(O)c(-c2ccc(O)c(CC=C)c2)c1` [HNK, honokiol], for which, in data set [1] (10 μg/ml of HNK, 72 hour treatment, BEL-7404 cells), the cell growth inhibition is reported as 68.7%. For the same molecule, the inhibition result in data set [1] (5 mcg/ml of HNK alone, BEL-7404 cells, FIG. 1) is recorded as “around 25%”. Also, the “cytotoxicity on BEL-7404 cells (in words)” value in data set [1] (72 hour treatment, single agents) is “cytotoxicity on BEL-7404 cells in a dose dependent manner”.

`CCCCCCCCCCCCCC(=O)O[C@@H]1[C@@H](C)[C@@]2(O)[C@@H](C=C(CO)C[C@]3(O)C(=O)C(C)=C[C@@H]23)[C@@H]2C(C)(C)[C@]12OC(C)=O` [PMA, Phorbol ester]: the “T-cytotoxic/suppressor Lymphocyte Activation, Activation (%)” value in data set [2] (24 h blood culture) was determined as 5.68%. The “T-cytotoxic/suppressor Lymphocyte Activation, % Increase” value in data set [2] (setting [4]) turned out to be 54.45%. The “T-helper/inducer Lymphocyte Activation, Activation (%)” value in data set [3] (24 h blood culture) was determined as 5.93%. Besides, the “T-helper/inducer Lymphocyte Activation, % Increase” value in data set [3] (setting [4]) came out at 120.86%.
